Drawing on BindingDB's records for doi:10.1124/jpet.102.047118 (Juvantia Pharma, 2003), this text covers Ki for 8 compounds.

By Ki is commonly meant the dissociation constant of the complex between target and ligand, obtained from inhibition or displacement. Higher therefore signals a looser hold on the target.

Values joined by “and” are separate entries in the source; they are usually repeats but may differ in a detail not shown here. Equal entries are not always repeated. Peptide text beside a SMILES is read from it.

The target of assay [1] is Neuropeptide FF receptor 2 (Homo sapiens, UniProt Q9Y5X5).
Chain of Neuropeptide FF receptor 2 (Q9Y5X5 whole entry): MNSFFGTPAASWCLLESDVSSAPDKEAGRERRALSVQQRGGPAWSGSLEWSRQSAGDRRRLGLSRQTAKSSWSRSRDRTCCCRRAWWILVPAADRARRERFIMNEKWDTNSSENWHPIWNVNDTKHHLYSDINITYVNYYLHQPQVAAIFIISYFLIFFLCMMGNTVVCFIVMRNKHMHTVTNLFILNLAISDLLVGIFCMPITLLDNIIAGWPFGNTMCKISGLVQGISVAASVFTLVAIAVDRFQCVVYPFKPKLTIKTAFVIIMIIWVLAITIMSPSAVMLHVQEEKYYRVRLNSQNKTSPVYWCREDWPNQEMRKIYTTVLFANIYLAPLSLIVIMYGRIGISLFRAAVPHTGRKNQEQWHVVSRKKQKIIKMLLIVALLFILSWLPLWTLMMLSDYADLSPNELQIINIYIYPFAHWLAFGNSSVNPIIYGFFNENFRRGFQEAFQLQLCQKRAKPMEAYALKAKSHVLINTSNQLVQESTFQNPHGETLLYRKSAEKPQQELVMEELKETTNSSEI
Assay [2] has as its target T1, Prolactin-releasing peptide receptor (Homo sapiens, UniProt P49683).
T1 sequence (P49683 whole entry): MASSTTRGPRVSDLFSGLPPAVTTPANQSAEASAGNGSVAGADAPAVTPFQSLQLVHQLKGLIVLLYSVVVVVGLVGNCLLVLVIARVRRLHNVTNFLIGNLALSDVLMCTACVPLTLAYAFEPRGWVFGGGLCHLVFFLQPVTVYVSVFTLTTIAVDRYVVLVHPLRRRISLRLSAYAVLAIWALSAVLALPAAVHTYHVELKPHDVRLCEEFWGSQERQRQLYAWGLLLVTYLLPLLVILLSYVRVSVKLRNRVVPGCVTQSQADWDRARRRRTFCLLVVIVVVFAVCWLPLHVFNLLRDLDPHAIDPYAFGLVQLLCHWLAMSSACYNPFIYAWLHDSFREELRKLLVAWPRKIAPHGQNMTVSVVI

Regarding `CC(C)C[C@H](NC(=O)[C@H](N)Cc1ccc(O)cc1)C(=O)N(C)[C@@H](Cc1ccccc1)C(=O)N[C@@H](CCC(N)=O)C(=O)N1CCC[C@H]1C(=O)N[C@@H](CCC(N)=O)C(=O)N[C@@H](CCCN=C(N)N)C(=O)N[C@@H](Cc1ccccc1)C(N)=O` [CAS_132709] (HELM PEPTIDE1{[dY].L.[meF].Q.P.Q.R.F.[am]}$$$$V2.0), the Ki in assay [1] amounted to 5.3 nM.

The compound `CC[C@H](C)[C@H](NC(=O)CNC(=O)[C@H](CCCNC(=N)N)NC(=O)CNC(=O)[C@@H](NC(=O)[C@H](Cc1ccc(O)cc1)NC(=O)[C@H](Cc1c[nH]c2ccccc12)NC(=O)[C@H](C)NC(=O)[C@@H]1CCCN1C(=O)[C@H](CC(N)=O)NC(=O)[C@@H](NC(=O)[C@H](CC(=O)O)NC(=O)[C@@H]1CCCN1C(=O)[C@@H](N)[C@@H](C)O)[C@@H](C)CC)[C@@H](C)O)C(=O)N[C@@H](CCCNC(=N)N)C(=O)N1CCC[C@H]1C(=O)N[C@H](C(=O)NCC(=O)N[C@@H](CCCNC(=N)N)C(=O)N[C@@H](Cc1ccccc1)C(N)=O)C(C)C` [CAS_222988-10-5] (H-TPDINPAWYTGRGIRPVGRF-NH2) yielded a Ki of 2.3 nM. In assay [1], this compound yielded a Ki of 23 nM. In assay [2], this compound yielded an inhibition constant (Ki) of 1 nM.

Take `CC(C)C[C@H](NC(=O)[C@@H](N)Cc1ccccc1)C(=O)N[C@@H](Cc1ccccc1)C(=O)N[C@@H](CCC(N)=O)C(=O)N1CCC[C@H]1C(=O)N[C@@H](CCC(N)=O)C(=O)N[C@@H](CCCN=C(N)N)C(=O)N[C@@H](Cc1ccccc1)C(N)=O` [CAS_235433-36-0]: the inhibitory constant (Ki) is 5.2 nM and 5.9 nM.

Turning to `CC(C)C[C@H](NC(=O)[C@@H](N)Cc1ccccc1)C(=O)N[C@@H](Cc1ccccc1)C(=O)N[C@@H](CCC(N)=O)C(=O)N1CCC[C@H]1C(=O)N[C@@H](CCC(N)=O)C(=O)N[C@@H](CCCN=C(N)N)C(=O)N[C@@H](Cc1ccccc1)C(=O)O` [NSC_0], the Ki was 2400 nM.

In the case of `CC[C@H](C)[C@H](NC(=O)CN)C(=O)N[C@@H](CCCN=C(N)N)C(=O)N1CCC[C@H]1C(=O)N[C@H](C(=O)NCC(=O)N[C@@H](CCCN=C(N)N)C(=O)N[C@@H](Cc1ccccc1)C(N)=O)C(C)C` [NSC_0] (H-GIRPVGRF-NH2), the Ki was 32 nM in assay [1] and 47 nM in assay [2].

Consider `N=C(N)NCCCC(NC(=O)C(c1ccccc1)c1ccccc1)C(=O)NCc1ccc(O)cc1` (configuration not stated) [NSC_5311023], for which the affinity, expressed as Ki, was 390 nM. The same compound yielded a Ki in assay [1] of 640 nM. This compound had a Ki in assay [2] above 10000 nM.

`CSCC[C@H](N)C(=O)N1CCC[C@H]1C(=O)N[C@@H](Cc1cnc[nH]1)C(=O)N[C@@H](CO)C(=O)N[C@@H](Cc1ccccc1)C(=O)N[C@@H](C)C(=O)N[C@@H](CC(N)=O)C(=O)N[C@@H](CC(C)C)C(=O)N1CCC[C@H]1C(=O)N[C@@H](CC(C)C)C(=O)N[C@@H](CCCNC(=N)N)C(=O)N[C@@H](Cc1ccccc1)C(N)=O` [RFamide-related peptide 1] (H-MPHSFANLPLRF-NH2) had an inhibition constant Ki of 15 nM. In assay [1], this compound yielded an inhibition constant Ki of 15 nM. Also, the inhibition constant (Ki) in assay [2] is above 10000 nM.

Compound `CC(C)C[C@H](NC(=O)[C@H](CC(N)=O)NC(=O)[C@@H]1CCCN1C(=O)[C@@H](N)C(C)C)C(=O)N1CCC[C@H]1C(=O)N[C@@H](CCC(N)=O)C(=O)N[C@@H](CCCNC(=N)N)C(=O)N[C@@H](Cc1ccccc1)C(N)=O` [RFamide-related peptide 3] displayed an inhibition constant Ki of 19 nM. Moreover, in assay [1], the inhibition constant Ki was determined as 55 nM. The compound further yielded a Ki in assay [2] above 10000 nM.
